# Data as given in ChEMBL document CHEMBL1124183, “Conformations of complexes between mitomycins and decanucleotides. 3. Sequence specificity, binding at C-10, and mitomycin analogues” (1988).
# Species on record: Mus musculus
# Assay: Minimum effective dose (MED) of compound against P388 Leukemia in mice was determined
# Assay type: functional
# Settings: read-out: MED
row,Compound,minimal effective dose [mg/kg]
1,CO[C@@]12C(COC(N)=O)c3c(O)c(N=C4C=CC(=O)C=C4)c(C)c(O)c3N1CC1NC12 (some centres undefined),0.1
2,CO[C@@]12[C@H](COC(N)=O)C3=C(C(=O)C(C)=C(N)C3=O)N1C[C@@H]1N[C@@H]12 [MITOMYCIN],0.2
3,CO[C@@]12C(COC(N)=O)C3=C(C(=O)C(C)=C(NC=[N+](C)C)C3=O)N1CC1NC12 (some centres undefined),0.05
4,CO[C@@]12C(COC(N)=O)C3=C(C(=O)C(C)=C(NCCS)C3=O)N1CC1NC12 (some centres undefined),0.2
